In patent publication US20080161366A1, “AMINOALKYL SUBSTITUTED ARYL SULFAMIDE DERIVATIVES AND METHODS OF THEIR USE” (Wyeth, priority 2006, published 2008):
Counter-ions that a name gives are not always drawn.

Tested on: not listed separately
Assay: Rat liver microsomal stability assay
Type: in vitro ADME
Conditions: pH 7.4; rat liver microsomes, 37° C., NADPH; read-out: RLM stability t1/2

Work on CNCCCCN1c2ccccc2N(c2ccccc2)S1(=O)=O [drawing 158] yielded a half-life at 1 µM of 2 min.

Same assay, conditions: rat liver microsomes, 37° C., NADPH

In the case of CNCCCN1c2ccccc2N(c2c(F)cccc2F)S1(=O)=O, the “RLM stability t1/2” value is reported as 2.0 min.

Molecular target: T1, human norepinephrine transporter (hNET) (Homo sapiens, UniProt P23975)
T1 sequence (P23975 whole entry): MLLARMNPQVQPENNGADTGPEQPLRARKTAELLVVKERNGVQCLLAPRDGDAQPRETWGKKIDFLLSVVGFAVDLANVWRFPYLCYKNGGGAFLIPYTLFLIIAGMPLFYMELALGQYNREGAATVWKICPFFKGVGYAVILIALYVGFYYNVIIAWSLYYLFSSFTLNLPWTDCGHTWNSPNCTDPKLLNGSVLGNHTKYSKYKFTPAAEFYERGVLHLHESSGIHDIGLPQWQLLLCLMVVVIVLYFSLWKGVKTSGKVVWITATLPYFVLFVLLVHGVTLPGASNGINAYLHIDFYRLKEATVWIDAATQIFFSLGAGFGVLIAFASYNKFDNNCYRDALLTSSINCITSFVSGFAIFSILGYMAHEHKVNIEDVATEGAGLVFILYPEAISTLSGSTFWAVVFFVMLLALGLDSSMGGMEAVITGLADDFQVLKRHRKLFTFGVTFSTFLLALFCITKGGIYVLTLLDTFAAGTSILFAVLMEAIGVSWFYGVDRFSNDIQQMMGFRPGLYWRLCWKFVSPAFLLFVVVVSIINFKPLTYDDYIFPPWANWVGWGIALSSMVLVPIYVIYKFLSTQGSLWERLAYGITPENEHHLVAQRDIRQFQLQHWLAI
Assay: hNET uptake, Protocol A: inhibition of [3H] NE uptake into cloned human NE transporters (MDCK cells)
Type: cell-based
Design: expressed in transfected cells; host or cells: MDCK-Net6 cells
Conditions: MDCK cells expressing hNET, [3H] NE 16 nM
Method: hNET Assay Procedure Protocol A: Inhibition of [^3H] NE Uptake into Cloned Human NE Transporters (MDCK Cells) (“hNET uptake”)
[^3H] […] Cells were seeded at 300,000/T75 flask, and split twice weekly.
All uptake experiments were performed in 96-well plates (Falcon Optilux, cat #353947) in a total volume of 250 μl/well. MDCK cells were plated at 50,000 cells/well. […] 25 μl of each test compound was subsequently added to plates in triplicate and incubated at 37° C. for 5 minutes. All test compounds were dissolved in 100% DMSO and diluted in 4% DMSO/H2O, and assayed using a 7-point dose response curve (1 nM-10 μM). Next, 25 μl of [^3H] NE (74.9 Ci/mmol, Perkin Elmer, Boston, Mass.) was added to all wells and incubated at 37° C. for an additional 5 minutes. Non-specific uptake was defined by 20 μM desipramine. The final concentrations of [^3H] NE was 16 nM, respectively. The reaction was terminated by aspiration and washed with ice cold 50 mM Tris (pH 7.4). The plates were left to air dry for roughly 30 min, and MDCK cells were lysed by the addition of 25 μl of 0.25 M NaOH. 100 μl of Microscint-20 were added to each well (Packard, Perkin Elmer, Boston, Mass.), and the plates were counted using a TopCount (Perkin Elmer, Downer's Grove, Ill.) liquid scintillation counter.
% Inhibition of uptake=((mean cpm control wells−each cpm drug well)/(mean cpm control wells−non-specific wells)×100.
IC50 values were calculated using a Prism® nonlinear regression program where % inhibition is plotted versus concentration of inhibitor.

In order of rising IC50:
1. CNCCCN1c2ccccc2N(c2cccc(F)c2C)S1(=O)=O [Example 10, 3-[3-(3-fluoro-2-methylphenyl)-2,2-dioxido-2,1,3-benzothiadiazol-1(3H)-yl]-N-methylpropan-1-amine]  0.0402 µM
2. CNCCCCN1c2ccccc2N(c2ccc(Cl)cc2)S1(=O)=O [Example 20, 4-[3-(4-chlorophenyl)-2,2-dioxido-2,1,3-benzothiadiazol-1(3H)-yl]-N-methylbutan-1-amine]  0.478 µM
3. NCCCCN1c2ccccc2N(c2ccc(Cl)cc2)S1(=O)=O [Example 19, 4-[3-(4-chlorophenyl)-2,2-dioxido-2,1,3-benzothiadiazol-1(3H)-yl]butan-1-amine]  1.13 µM
4. NCCCN1c2ccccc2N(c2ccc(Cl)cc2)S1(=O)=O [Example 2, 3-[3-(4-chlorophenyl)-2,2-dioxido-2,1,3-benzothiadiazol-1(3H)-yl]propan-1-amine]  2.53 µM
5. O=S1(=O)N(CCCNC2CC2)c2ccccc2N1c1ccc(Cl)cc1 [Example 3, N-{3-[3-(4-chlorophenyl)-2,2-dioxido-2,1,3-benzothiadiazol-1(3H)-yl]propyl}cyclopropanamine]  4.22 µM
6. CN(C)CCCCN1c2ccccc2N(c2ccc(Cl)cc2)S1(=O)=O [Example 21, 4-[3-(4-chlorophenyl)-2,2-dioxido-2,1,3-benzothiadiazol-1(3H)-yl]-N,N-dimethylbutan-1-amine]  5.89 µM

Same assay, conditions: MDCK; read-out: NE uptake (Protocol A) % inh. @ 2 uM

In order of rising inhibition at 2 µM:
1. NCCN1c2ccccc2N(c2ccc(Cl)cc2)S1(=O)=O [Example 54, 2-[3-(4-chlorophenyl)-2,2-dioxido-2,1,3-benzothiadiazol-1(3H)-yl]ethanamine]  3%
2. CNCCN1c2ccccc2N(c2ccc(Cl)cc2)S1(=O)=O [Example 55, 2-[3-(4-chlorophenyl)-2,2-dioxido-2,1,3-benzothiadiazol-1(3H)-yl]-N-methylethanamine]  15%
3. CCCCNCCCCN1c2ccccc2N(c2ccc(Cl)cc2)S1(=O)=O [Example 22, n-butyl-4-[3-(4-chlorophenyl)-2,2-dioxido-2,1,3-benzothiadiazol-1(3H)-yl]butan-1-amine]  27%
4. CCN(C)CCCCN1c2ccccc2N(c2ccc(Cl)cc2)S1(=O)=O [Example 23, 4-[3-(4-chlorophenyl)-2,2-dioxido-2,1,3-benzothiadiazol-1(3H)-yl]-ethyl-N-methylbutan-1-amine]  28%
5. CCNCCCN1c2ccccc2N(c2ccc(Cl)cc2)S1(=O)=O [Example 4, 3-[3-(4-chlorophenyl)-2,2-dioxido-2,1,3-benzothiadiazol-1(3H)-yl]-N-ethylpropan-1-amine]  37%

Molecular target: Dopamine Transporter (hDAT) (Homo sapiens, UniProt Q01959)
Sequence (Q01959 whole entry): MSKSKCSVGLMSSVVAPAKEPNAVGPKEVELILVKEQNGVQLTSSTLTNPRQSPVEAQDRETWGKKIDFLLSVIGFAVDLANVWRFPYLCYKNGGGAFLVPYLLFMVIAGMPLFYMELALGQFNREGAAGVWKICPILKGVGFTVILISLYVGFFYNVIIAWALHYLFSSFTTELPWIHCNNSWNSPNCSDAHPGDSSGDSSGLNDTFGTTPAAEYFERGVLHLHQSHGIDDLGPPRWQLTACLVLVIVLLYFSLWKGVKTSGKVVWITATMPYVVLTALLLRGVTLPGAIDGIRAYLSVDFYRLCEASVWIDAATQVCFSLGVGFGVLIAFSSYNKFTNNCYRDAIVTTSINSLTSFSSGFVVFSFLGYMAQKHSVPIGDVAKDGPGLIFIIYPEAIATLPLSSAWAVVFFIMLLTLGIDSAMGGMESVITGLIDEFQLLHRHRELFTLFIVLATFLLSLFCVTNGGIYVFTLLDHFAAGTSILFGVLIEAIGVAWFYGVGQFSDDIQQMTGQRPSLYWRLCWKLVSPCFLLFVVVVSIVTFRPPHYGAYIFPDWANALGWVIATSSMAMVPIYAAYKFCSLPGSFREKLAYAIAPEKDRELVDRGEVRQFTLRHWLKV
Assay: Dopamine transporter (hDAT) membrane binding assay, [3H]-WIN 35,428
Conditions: not given

Compound CNCCCCN1c2ccccc2N(c2ccccc2)S1(=O)=O [drawing 158] has an IC50 of 0.211 µM.

Molecular target: T1, human norepinephrine transporter (hNET)
Assay: hNET uptake, Protocol B: cell based norepinephrine reuptake assay using recombinant hNET (MDCK-Net6 cells)
Conditions: MDCK-Net6, read-out: NE uptake (Protocol B) % inhibition @ 6 uM

Work on CN(C)CCCCN1c2ccccc2N(c2ccc(F)cc2Cl)S1(=O)=O [Example 88, 4-[3-(2-chloro-4-fluorophenyl)-2,2-dioxido-2,1,3-benzothiadiazol-1(3H)-yl]-N,N-dimethylbutan-1-amine hydrochloride] yielded an inhibition at 6 µM of 57%.

Same assay, conditions: NE uptake (Protocol B) IC50 (nM), MDCK-Net6 cells, 3H-NE 16 nM

In order of falling IC50:
1. CC(C)NCCCCN1c2ccccc2N(c2c(F)cccc2F)S1(=O)=O [Example 123, 4-[3-(2,6-difluorophenyl)-2,2-dioxido-2,1,3-benzothiadiazol-1(3H)-yl]-N-isopropylbutan-1-amine hydrochloride]  1170 nM
2. CNCCCN1c2ccccc2N(c2cccc3ccccc23)S1(=O)=O [Example 13, N-methyl-3-[3-(1-naphthyl)-2,2-dioxido-2,1,3-benzothiadiazol-1(3H)-yl]propan-1-amine]  534 nM
3. CNCCCN1c2ccccc2N(c2ccc(Cl)cc2C)S1(=O)=O [Example 100, 3-[3-(4-chloro-2-methylphenyl)-2,2-dioxido-2,1,3-benzothiadiazol-1(3H)-yl]-N-methylpropan-1-amine]  370 nM
4. CN(C)CCCCCN1c2ccccc2N(c2ccccc2F)S1(=O)=O [Example 67, 5-[3-(2-fluorophenyl)-2,2-dioxido-2,1,3-benzothiadiazol-1(3H)-yl]-N,N-dimethylpentan-1-amine]  298 nM
5. CNCCCN1c2ccccc2N(c2ccc(F)cc2OC)S1(=O)=O [Example 64, 3-[3-(4-fluoro-2-methoxyphenyl)-2,2-dioxido-2,1,3-benzothiadiazol-1(3H)-yl]-N-methylpropan-1-amine]  295 nM
6. CNCCCN1c2cc(C)ccc2N(c2ccccc2)S1(=O)=O [Example 40, N-methyl-3-(6-methyl-2,2-dioxido-3-phenyl-2,1,3-benzothiadiazol-1(3H)-yl)propan-1-amine]  252 nM
7. CNCCCN1c2ccccc2N(c2cccc(C)n2)S1(=O)=O [Example 32, N-methyl-3-[3-(6-methylpyridin-2-yl)-2,2-dioxido-2,1,3-benzothiadiazol-1(3H)-yl]propan-1-amine hydrochloride]  192 nM
8. CNCCCN1c2ccccc2N(c2ccccc2OC(F)(F)F)S1(=O)=O [Example 50, 3-{2,2-dioxido-3-[2-(trifluoromethoxy)phenyl]-2,1,3-benzothiadiazol-1(3H)-yl}-N-methylpropan-1-amine hydrochloride]  190 nM
9. CNCCCN1c2c(F)cccc2N(c2ccc(F)cc2F)S1(=O)=O [Example 78, 3-[3-(2,4-Difluorophenyl)-7-fluoro-2,2-dioxido-2,1,3-benzothiadiazol-1(3H)-yl]-N-methylpropan-1-amine hydrochloride]  45 nM
10. CNCCCN1c2ccccc2N(c2ccc(Cl)cc2F)S1(=O)=O [Example 95, 3-[3-(4-chloro-2-fluorophenyl)-2,2-dioxido-2,1,3-benzothiadiazol-1(3H)-yl]-N-methylpropan-1-amine]  30 nM
11. O=S1(=O)N(CCCCNC2CC2)c2ccccc2N1c1c(F)cccc1F [Example 86, N-{4-[3-(2,6-Difluorophenyl)-2,2-dioxido-2,1,3-benzothiadiazol-1(3H)-yl]butyl}cyclopropanamine hydrochloride]  21 nM
12. CCNCCCN1c2ccccc2N(c2c(F)cccc2F)S1(=O)=O [Example 126, 3-[3-(2,6-difluorophenyl)-2,2-dioxido-2,1,3-benzothiadiazol-1(3H)-yl]-N-ethylpropan-1-amine hydrochloride]  15 nM
13. CNCCCN1c2ccccc2N(c2c(F)cc(F)cc2F)S1(=O)=O [Example 77, 3-[2,2-Dioxido-3-(2,4,6-trifluorophenyl)-2,1,3-benzothiadiazol-1(3H)-yl]-N-methylpropan-1-amine hydrochloride]  15 nM
14. NCCCN1c2ccccc2N(c2ccccc2F)S1(=O)=O [Example 56, 3-[3-(2-fluorophenyl)-2,2-dioxido-2,1,3-benzothiadiazol-1(3H)-yl]propan-1-amine]  13.1 nM
15. CNCCCN1c2ccccc2N(c2cccc(F)c2)S1(=O)=O [Example 12, 3-[3-(3-fluorophenyl)-2,2-dioxido-2,1,3-benzothiadiazol-1(3H)-yl]-N-methylpropan-1-amine]  12.2 nM
16. NCCCN1c2ccccc2N(c2c(F)cccc2F)S1(=O)=O [Example 69, 3-[3-(2,6-Difluorophenyl)-2,2-dioxido-2,1,3-benzothiadiazol-1(3H)-yl]propan-1-amine hydrochloride]  10.4 nM
17. CNCCCN1c2ccccc2N(c2ccc(F)cc2)S1(=O)=O [Example 6, 3-[3-(4-fluorophenyl)-2,2-dioxido-2,1,3-benzothiadiazol-1(3H)-yl]-N-methylpropan-1-amine]  6.87 nM
18. CNCCCN1c2ccccc2N(c2ccc(F)cc2F)S1(=O)=O [Example 75, 3-[3-(2,4-difluorophenyl)-2,2-dioxido-2,1,3-benzothiadiazol-1(3H)-yl]-N-methylpropan-1-amine hydrochloride]  4.17 nM
19. CNCCCN1c2ccccc2N(c2ccc(O)cc2F)S1(=O)=O [Example 92, 3-fluoro-4-{3-[3-(methylamino)propyl]-2,2-dioxido-2,1,3-benzothiadiazol-1(3H)-yl}phenol hydrochloride]  3 nM
20. CNCCCN1c2cccc(F)c2N(c2ccccc2F)S1(=O)=O [Example 73, 3-[4-fluoro-3-(2-fluorophenyl)-2,2-dioxido-2,1,3-benzothiadiazol-1(3H)-yl]-N-methylpropan-1-amine hydrochloride]  2.81 nM

Same assay, conditions: hNET Function IC50 (nM), protocol not stated

CNCCCCN1c2ccccc2N(c2ccccc2)S1(=O)=O [drawing 158] gave an IC50 of 0.3 nM.
